Test results published in patent US12677832B2, “Oxadiazole compounds for controlling or preventing phytopathogenic fungi” (PI INDUSTRIES LTD., priority 2019, dated 2026).

Tested on: Phakopsora pachyrhizi
Assay: Phakopsora pachyrhizi Test in Soybean (preventive spray)
Assay type: in vivo
Conditions: preventive spray on Soybean plants, inoculated one day after treatment, disease severity vs untreated control
Protocol: Example 7: Phakopsora pachyrhizi Test in Soybean Compounds were dissolved in 2% dimethyl sulfoxide/acetone and then mixed with water containing an emulsifier to a calibrated spray volume of 50 mL. This 50 mL spray solution was poured into spray bottles for further applications. To test the preventive activity of compounds, healthy young Soybean plants, raised in the greenhouse, were sprayed with the active compound preparation at the stated application rates inside the spray cabinets using hollow cone nozzles. One day after treatment, the plants were inoculated with a spore suspension containing 2×10^5Phakopsora pachyrhizi conidia. The inoculated plants were then kept in a greenhouse chamber at 22-24° C. temperature and 80-90% relative humidity for disease expression. A visual assessment of the compound's performance was carried out by rating the disease severity (0-100% scale) on treated plants 3, 7, 10 and 15 days after application. Efficacy (% control) of the compounds was calculated by comparing the disease rating in the treatment with the one of the untreated control. The sprayed plants were also assessed for plant compatibility by recording symptoms like necrosis, chlorosis and stunting.

Row | Compound | pest or weed control at 500 ppm [%]
1 | O=C(COc1ccccc1F)c1ccc(-c2noc(C(F)(F)F)n2)cc1 [Compound 1, 2-(2-fluorophenoxy)-1-(4-(5-(trifluoromethyl)-1,2,4-oxadiazol-3-yl)phenyl)ethan-1-one] | ≥ 70
2 | COc1ccc(OCC(=O)c2ccc(-c3noc(C(F)(F)F)n3)cc2)cc1 [Compound 2, 2-(4-methoxyphenoxy)-1-(4-(5-(trifluoromethyl)-1,2,4-oxadiazol-3-yl)phenyl)ethan-1-one] | ≥ 70
3 | O=C(COc1cccc(F)c1)c1ccc(-c2noc(C(F)(F)F)n2)cc1 [Compound 3, 2-(3-fluorophenoxy)-1-(4-(5-(trifluoromethyl)-1,2,4-oxadiazol-3-yl)phenyl)ethan-1-one] | ≥ 70
4 | O=C(COc1ccc(F)cc1)c1ccc(-c2noc(C(F)(F)F)n2)cc1 [Compound 4, 2-(4-fluorophenoxy)-1-(4-(5-(trifluoromethyl)-1,2,4-oxadiazol-3-yl)phenyl)ethan-1-one] | ≥ 70
5 | O=C(COc1ccc(Br)cc1)c1ccc(-c2noc(C(F)(F)F)n2)cc1 [Compound 5, 2-(4-bromophenoxy)-1-(4-(5-(trifluoromethyl)-1,2,4-oxadiazol-3-yl)phenyl)ethan-1-one] | ≥ 70
6 | O=C(COc1ccc(Cl)cc1)c1ccc(-c2noc(C(F)(F)F)n2)cc1 [Compound 6, 2-(4-chlorophenoxy)-1-(4-(5-(trifluoromethyl)-1,2,4-oxadiazol-3-yl)phenyl)ethan-1-one] | ≥ 70
7 | O=C(COc1ccc(Cl)c(C(F)(F)F)c1)c1ccc(-c2noc(C(F)(F)F)n2)cc1 [Compound 9, 2-(4-chloro-3-(trifluoromethyl)phenoxy)-1-(4-(5-(trifluoromethyl)-1,2,4-oxadiazol-3-yl)phenyl)ethan-1-one] | ≥ 70
8 | Cc1cccc(OCC(=O)c2ccc(-c3noc(C(F)(F)F)n3)cc2)c1 [Compound 10, 2-(m-tolyloxy)-1-(4-(5-(trifluoromethyl)-1,2,4-oxadiazol-3-yl)phenyl)ethan-1-one] | ≥ 70
9 | COc1ccccc1OCC(=O)c1ccc(-c2noc(C(F)(F)F)n2)cc1 [Compound 11, 2-(2-methoxyphenoxy)-1-(4-(5-(trifluoromethyl)-1,2,4-oxadiazol-3-yl)phenyl)ethan-1-one] | ≥ 70
10 | O=C(COc1ccc(Br)c(F)c1)c1ccc(-c2noc(C(F)(F)F)n2)cc1 [Compound 12, 2-(4-bromo-3-fluorophenoxy)-1-(4-(5-(trifluoromethyl)-1,2,4-oxadiazol-3-yl)phenyl)ethan-1-one] | ≥ 70
11 | O=C(CSc1c(Cl)cccc1Cl)c1ccc(-c2noc(C(F)(F)F)n2)cc1 [Compound 13, 2-((2,6-dichlorophenyl)thio)-1-(4-(5-(trifluoromethyl)-1,2,4-oxadiazol-3-yl)phenyl)ethan-1-one] | ≥ 70
12 | COc1cccc(SCC(=O)c2ccc(-c3noc(C(F)(F)F)n3)cc2)c1 [Compound 14, 2-((3-methoxyphenyl)thio)-1-(4-(5-(trifluoromethyl)-1,2,4-oxadiazol-3-yl)phenyl)ethan-1-one] | ≥ 70
13 | Cc1ccc(C)c(OCC(=O)c2ccc(-c3noc(C(F)(F)F)n3)cc2)c1 [Compound 16, 2-(2,5-dimethylphenoxy)-1-(4-(5-(trifluoromethyl)-1,2,4-oxadiazol-3-yl)phenyl)ethan-1-one] | ≥ 70
14 | O=C(COc1ccc(F)cc1Cl)c1ccc(-c2noc(C(F)(F)F)n2)cc1 [Compound 19, 2-(2-chloro-4-fluorophenoxy)-1-(4-(5-(trifluoromethyl)-1,2,4-oxadiazol-3-yl)phenyl)ethan-1-one] | ≥ 70
15 | O=C(COc1ccc(Cl)cc1Cl)c1ccc(-c2noc(C(F)(F)F)n2)cc1 [Compound 20, 2-(2,4-dichlorophenoxy)-1-(4-(5-(trifluoromethyl)-1,2,4-oxadiazol-3-yl)phenyl)ethan-1-one] | ≥ 70
16 | Cc1ccc(SCC(=O)c2ccc(-c3noc(C(F)(F)F)n3)cc2)cc1 [Compound 22, 2-(p-tolylthio)-1-(4-(5-(trifluoromethyl)-1,2,4-oxadiazol-3-yl)phenyl)ethan-1-one] | ≥ 70
17 | COc1ccc(SCC(=O)c2ccc(-c3noc(C(F)(F)F)n3)cc2)cc1 [Compound 23, 2-((4-methoxyphenyl)thio)-1-(4-(5-(trifluoromethyl)-1,2,4-oxadiazol-3-yl)phenyl)ethan-1-one] | ≥ 70
18 | O=C(CSC1CCCC1)c1ccc(-c2noc(C(F)(F)F)n2)cc1 [Compound 24, 2-(cyclopentylthio)-1-(4-(5-(trifluoromethyl)-1,2,4-oxadiazol-3-yl)phenyl)ethan-1-one] | ≥ 70
19 | O=C(CSc1nc2ccccc2o1)c1ccc(-c2noc(C(F)(F)F)n2)cc1 [Compound 25, 2-(benzo[d]oxazol-2-ylthio)-1-(4-(5-(trifluoromethyl)-1,2,4-oxadiazol-3-yl)phenyl)ethan-1-one] | ≥ 70
20 | Cc1csc(SCC(=O)c2ccc(-c3noc(C(F)(F)F)n3)cc2)n1 [Compound 26, 2-((4-methylthiazol-2-yl)thio)-1-(4-(5-(trifluoromethyl)-1,2,4-oxadiazol-3-yl)phenyl)ethan-1-one] | ≥ 70
21 | O=C(CNc1ccc(C(F)(F)F)cc1)c1ccc(-c2noc(C(F)(F)F)n2)cc1 [Compound 28, 1-(4-(5-(trifluoromethyl)-1,2,4-oxadiazol-3-yl)phenyl)-2-((4-(trifluoromethyl)phenyl)amino)ethan-1-one] | ≥ 70
22 | O=C(CNc1ccccc1F)c1ccc(-c2noc(C(F)(F)F)n2)cc1 [Compound 29, 2-((2-fluorophenyl)amino)-1-(4-(5-(trifluoromethyl)-1,2,4-oxadiazol-3-yl)phenyl)ethan-1-one] | ≥ 70
23 | Cc1ccc(Cl)c(OCC(=O)c2ccc(-c3noc(C(F)(F)F)n3)cc2)c1 [Compound 33, 2-(2-chloro-5-methylphenoxy)-1-(4-(5-(trifluoromethyl)-1,2,4-oxadiazol-3-yl)phenyl)ethan-1-one] | ≥ 70
24 | Cc1ccc(OCC(=O)c2ccc(-c3noc(C(F)(F)F)n3)cc2)cc1 [Compound 34, 2-(p-tolyloxy)-1-(4-(5-(trifluoromethyl)-1,2,4-oxadiazol-3-yl)phenyl)ethan-1-one] | ≥ 70
25 | O=C(COc1cccc(Cl)c1)c1ccc(-c2noc(C(F)(F)F)n2)cc1 [Compound 35, 2-(3-chlorophenoxy)-1-(4-(5-(trifluoromethyl)-1,2,4-oxadiazol-3-yl)phenyl)ethan-1-one] | ≥ 70
26 | O=C(COc1ccc(C(F)(F)F)cc1)c1ccc(-c2noc(C(F)(F)F)n2)cc1 [Compound 36, 1-(4-(5-(trifluoromethyl)-1,2,4-oxadiazol-3-yl)phenyl)-2-(4-(trifluoromethyl)phenoxy)ethan-1-one] | ≥ 70
27 | O=C(COc1cccc(C(F)(F)F)c1)c1ccc(-c2noc(C(F)(F)F)n2)cc1 [Compound 40, 1-(4-(5-(trifluoromethyl)-1,2,4-oxadiazol-3-yl)phenyl)-2-(3-(trifluoromethyl)phenoxy)ethan-1-one] | ≥ 70
